Measured values from patent US5643604A, “Parenteral dosage form” (Aplicaciones Farmaceuticas S.A. De C.V., priority 1990, dated 1997).

Assays:
[1] = Comparative UV spectrophotometric analysis before and after formation of microspheres; type: physicochemical; conditions: starting materials (crystals) vs microspheres obtained by spray-freezing; ethanol for 17-beta-estradiol and cholesterol, 0.1N HCl for the others
From the text: (§1) It is necessary to check that no chemical damage of the substances occurs during the spray-freezing process, which could modify their therapeutic properties. The starting materials (crystals) and the microspheres obtained by spray-freezing are compared by UV and IR spectrophotometry. UV spectras shall always be superimposable and IR spectras shall correspond. If differences in infrared spectras appear, it shall be checked if they are due to a polymorphism phenomenon, by means of an HPLC setup with diode-array detection. Differential thermal analysis is also used, not only to check the melting points, but also to determine if endothermic or exothermic transitions occur, due either to structure modifications or to a polymorphism, which may influence the microsphere information process, or due to heat-induced chemical reactions.
Equipment used in ultraviolet spectrography: Hewlett Packard model 8452A with photodiode arrangement and quartz cell with a beam of 0.1 cm.

[2] = Comparative infrared spectrophotometry (FT-IR, with HPLC diode-array) before and after formation of microspheres; type: physicochemical; conditions: after the formation of microspheres; potassium bromide dispersion
From the text: as §1
Equipment used in infrared spectrophotometry: Nicolet 205 FT-IR. Dispersion medium: potassium bromide. Chromatography: HPLC device with photo diode-array detector, model Waters 990 and Nec powermate 2 workstation.

[3] = Differential thermal analysis (DSC); conditions: Shimadzu DSC 50 calorimeter
From the text: as §1
Thermal analysis: Shimadzu DSC 50 calorimeter and CR4A workstation.

[4] = general statement, no test described; cited from earlier work

Compound | chemical modification by UV spectrophotometry [1] | chemical modification by infrared spectrophotometry [2] | degradation on differential thermograms [3] | solubility in water [4]
C[C@]12CC[C@@H]3c4ccc(O)cc4CC[C@H]3[C@@H]1CC[C@@H]2O [17-beta-estradiol] | no trace of modification | no modification | no degradation | –
CCCC[N+]1(C)C2CC(OC(=O)C(CO)c3ccccc3)CC1C1OC12 (centres unmarked) [butylhioscine bromide] | no trace of modification | produces chemical modifications | – | –
Cn1c(=O)c2c(ncn2C)n(C)c1=O [caffeine] | no trace of modification | – | no degradation | –
CC(C)CCC[C@@H](C)[C@H]1CC[C@H]2[C@@H]3CC=C4C[C@@H](O)CC[C@]4(C)[C@H]3CC[C@]12C [cholesterol] | no trace of modification | no modification | – | –
CN1C(=O)CN=C(c2ccccc2)c2cc(Cl)ccc21 [diazepam] | – | – | no degradation | –
CCN(CC)CCNC(=O)c1cc(Cl)c(N)cc1OC [methoclopramide] | – | – | – | freely soluble in water
